Reference: patent publication US20080025960A1, “Detergents with stabilized enzyme systems” (priority 2006, published 2008)

Experiments:
[1] = molecular target: T1, glucose oxidase (Aspergillus niger, UniProt P13006); assay: Premature hydrogen peroxide generation by glucose oxidase in control buffer or AATCC liquid detergent stock (as is) with glucose and inhibitor, dipsticks; format: biochemical; conditions: for Hydrogen Peroxide Generation, PPM H2O2: T = 0+, 500 PPM oxidase; for Hydrogen Peroxide Generation, PPM H2O2 / hydrogen peroxide production / H2O2 generated: as is; for Hydrogen Peroxide Generation, PPM H2O2 / premature hydrogen peroxide generation / H2O2 PPM: 500 mM glucose; for premature hydrogen peroxide generation: liquid detergent formulation, 500 PPM glucose oxidase, over 21 days; for H2O2 PPM: T = 0+, 12, 30, as is, 500 PPM enzyme, 100 mM sodium metabisulfite; for H2O2 generated: time 0+
T1 construct: purchased Genencor OXYGO L-5000
Excerpt: In this Example, experiments conducted to assess the stabilization of glucose oxidase in the presence of its substrate (i.e., glucose) and an inhibitor (i.e., sodium hydrogen sulfite) is described. In these experiments, AATCC standard detergent (American Association of Textile Chemists and Colorists Heavy Duty Liquid detergent version 2003 without brightener; key components include linear alkane sulfonate, alcohol ethoxylate, propanediol, citric acid, fatty acid, castic soda and water; purchased from TestFabrics) was used.
In these experiments, 100 mM Tris pH 8.3, with 0.005% TWEEN®-100 surfactant used as a positive control. […] Three two-ml tubes were weighed with 0.990 g of AATCC detergent (lot # 01282004) and another three tubes with 0.990 g of control buffer. Then, 90 mg (500 mM) of glucose substrate were added to all of the tubes. Next, 100, 50, and 10 mM sodium hydrogen sulfite (MW 106.1) were added to each tube respectively, including the control buffer and AATCC detergent control. All of the tubes were placed on a rotary plate for an hour to allow good mixing and solubilization of glucose into the detergent. Then, 500 PPM (0.5 mg, 14.88 ul) glucose oxidase (OXYGO™ L-5000, 5379 U/ml; 33.6 mg/ml; Genencor) was added to six 2-ml tubes (three with glucose/bisulfite containing control buffers and three with glucose/bisulfite containing AATCC detergent). All of the tubes were then set on the rotary plate (60 rpm) at room temperature. Hydrogen peroxide production was measured using dipsticks (peroxidase/ABTS—Baker Testrips;Baker) at various times—t=0+minutes, 12 minutes, and 30 minutes. The tube containing 100 mM bisulfite with glucose, glucose oxidase in liquid detergent was further monitored for premature generation of hydrogen peroxide further over a period of time starting at 1 hr, 12 hr, 7 days, 12 days and up to 21 days.
In these experiments, 100 mM Tris pH 8.3, with 0.005% TWEEN®-100 surfactant was used as a positive control. […] Three two-ml tubes were weighed with 0.990 g of AATCC detergent (lot # 01282004) and another three tubes with 0.990 g of control buffer.
Three two-ml tubes containing 0.990 g of AATCC detergent (lot # 01282004) and another three tubes with 0.990 g of control buffer were weighed. Then, 90 mg (500 mM) glucose substrate was added to each tube. Then, 100, 50, and 10 mM sodium metabisulfite were added to each tube respectively (i.e., both control buffer and AATCC detergent-containing tubes). All of the tubes were placed on a rotary plate for an hour to allow good mixing and solubilization of glucose into the detergent. Next, 500 PPM (0.5 mg, 14.88 ul) glucose oxidase (OXYGO™ L-5000, 5379 U/ml; 33.6 mg/ml; Genencor) was added to six 2-ml tubes (three with glucose/metabisulfite containing control buffers and three with glucose/metabisulfite containing AATCC detergent). All of the tubes were then set on the rotary plate (60 rpm) at room temperature. H2O2 production was measured using dipsticks (peroxidase/ABTS), as described in Examples 1 and 2, for t=0+ minutes, 12 minutes, and 30 minutes. The tube containing 100 mM bisulfite with glucose, glucose oxidase in liquid detergent was further monitored for premature generation of hydrogen peroxide further over a period of time starting at 1 hr, 12 hr, 7 days, 12 days and up to 21 days.

[2] = molecular target: T2, alcohol oxidase (Pichia angusta, UniProt P04841); assay: Hydrogen peroxide concentration in control buffer or AATCC liquid detergent stock (as is) with alcohol oxidase, ethanol and inhibitor; format: biochemical, Hansunela sp.; conditions: for character of alcohol oxidase inhibition: 100 mM concentration tested; for premature generation of H2O2 in AATCC detergent stock / H2O2 PPM: 100 mM inhibitor; for premature generation of H2O2 in AATCC detergent stock: period of investigation 120 minutes; for H2O2 PPM: as is, 1 M ethanol, 10U enzyme
T2 construct: purchased Sigma
Method: In these experiments, the stability of alcohol oxidase obtained from Hansunela sp., (100 U/ml. 22 U/mg, 13 mg total solid in vial, 7.7 U/mg solid; Sigma) in AATCC liquid detergent was tested. In these experiments, 10 U of the alcohol oxidase were used in liquid detergent stock for each experiment. For testing, 1M ethanol was mixed into the detergent (46 mg ethanol in 990 mg detergent). […] The experiments were conducted as described above in Examples 1 and 3.

[3] = molecular target: T2, alcohol oxidase; assay: Hydrogen peroxide concentration in wash liquor with alcohol oxidase, ethanol and inhibitor; format: biochemical, Hansunela sp.; conditions: 2 mM ethanol, 0.02U enzyme, 0.2 mM inhibitor
Method: The stability and activity of the alcohol oxidase enzyme (described in Example 5) in AATCC liquid detergent (Sigma, 100 U/ml. 22 U/mg, 13 mg total solid in vial, 7.7 U/mg solid) was tested upon dilution into wash liquor. In these experiments, 10 U of alcohol oxidase were used in liquid detergent stock for each experiment. In addition, 1M ethanol (substrate) was mixed in detergent (46 mg ethanol in 990 mg detergent). […] In these experiments, 10 ul of final detergent mix or control mix were added to 5 ml of wash liquor. The same methods as described in Examples 2 and 4 were used in these experiments.

T2 sequence (P04841 whole entry): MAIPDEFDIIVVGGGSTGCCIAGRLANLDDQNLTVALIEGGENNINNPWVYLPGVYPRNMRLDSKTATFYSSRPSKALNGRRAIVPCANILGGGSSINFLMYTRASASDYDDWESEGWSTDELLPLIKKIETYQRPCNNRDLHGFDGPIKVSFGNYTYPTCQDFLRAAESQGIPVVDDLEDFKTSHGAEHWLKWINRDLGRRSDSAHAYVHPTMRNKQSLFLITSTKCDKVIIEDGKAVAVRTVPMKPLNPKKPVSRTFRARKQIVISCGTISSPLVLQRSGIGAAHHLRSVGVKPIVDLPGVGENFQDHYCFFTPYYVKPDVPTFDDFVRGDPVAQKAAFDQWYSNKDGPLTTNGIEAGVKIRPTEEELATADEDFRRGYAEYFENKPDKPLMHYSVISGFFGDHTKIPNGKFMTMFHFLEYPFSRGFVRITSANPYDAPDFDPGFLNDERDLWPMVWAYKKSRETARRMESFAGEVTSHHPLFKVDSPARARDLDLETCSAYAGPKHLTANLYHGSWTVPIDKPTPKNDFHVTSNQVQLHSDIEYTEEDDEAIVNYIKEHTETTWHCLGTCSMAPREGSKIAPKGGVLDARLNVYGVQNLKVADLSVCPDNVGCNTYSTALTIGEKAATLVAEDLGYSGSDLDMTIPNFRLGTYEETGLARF
T1 sequence (P13006 17-605): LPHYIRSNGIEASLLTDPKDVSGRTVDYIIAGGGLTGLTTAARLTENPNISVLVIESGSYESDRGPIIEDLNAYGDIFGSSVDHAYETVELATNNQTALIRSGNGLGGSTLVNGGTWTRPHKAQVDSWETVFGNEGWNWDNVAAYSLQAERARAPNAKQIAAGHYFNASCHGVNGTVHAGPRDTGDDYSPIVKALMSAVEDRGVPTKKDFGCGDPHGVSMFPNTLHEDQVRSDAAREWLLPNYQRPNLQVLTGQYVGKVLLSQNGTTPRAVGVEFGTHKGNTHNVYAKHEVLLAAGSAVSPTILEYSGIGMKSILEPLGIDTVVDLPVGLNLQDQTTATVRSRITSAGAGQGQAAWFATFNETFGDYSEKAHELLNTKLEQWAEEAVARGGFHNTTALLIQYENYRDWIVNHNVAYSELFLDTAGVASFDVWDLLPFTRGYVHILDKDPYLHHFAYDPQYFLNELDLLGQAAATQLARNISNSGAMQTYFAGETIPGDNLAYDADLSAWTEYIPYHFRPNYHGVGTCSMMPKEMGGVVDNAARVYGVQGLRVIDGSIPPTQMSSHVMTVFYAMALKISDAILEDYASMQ

Row | Compound | character of alcohol oxidase inhibition [2] | premature generation of H2O2 in AATCC detergent stock [2] | H2O2 PPM ([2]; AATCC Detergent, T = 0+) | H2O2 PPM ([2]; AATCC Detergent, T = 12 min) | H2O2 PPM ([2]; AATCC Detergent, T = 30 min) | H2O2 PPM ([2]; AATCC Detergent, T = 120 min) | H2O2 PPM ([2]; Control Buffer, T = 0+) | H2O2 PPM ([2]; Control Buffer, T = 12 min) | H2O2 PPM ([2]; Control Buffer, T = 30 min) | H2O2 PPM ([2]; Control Buffer, T = 120 min) | H2O2 PPM ([3]; AATCC Detergent, T = 12 min) | H2O2 PPM ([3]; AATCC Detergent, T = 30 min) | H2O2 PPM ([3]; AATCC Detergent, T = 120 min) | H2O2 PPM ([3]; Control Buffer, T = 0+) | H2O2 PPM ([3]; Control Buffer, T = 12 min) | H2O2 PPM ([3]; Control Buffer, T = 30 min) | H2O2 PPM ([3]; Control Buffer, T = 120 min) | further results
1 | O=S([O-])O.[Na+] [bisulfite, sodium hydrogen sulfite] | reversible inhibitors | able to stop premature generation of H2O2 | 0 PPM | 0 PPM | 0 PPM | 0, PPM | 0 PPM | 0 PPM | 0 PPM | 0 PPM | 0 PPM | 0 PPM | >3 (hydrogen sulfite) PPM | 0 PPM | 0 PPM | 0 PPM | 1 (hydrogen sulfite) PPM | Hydrogen Peroxide Generation, PPM H2O2 ([1]; AATCC Detergent, 10 mM bisulfite): >10 PPM; Hydrogen Peroxide Generation, PPM H2O2 ([1]; AATCC Detergent, 50 mM bisulfite): 10 PPM; Hydrogen Peroxide Generation, PPM H2O2 ([1]; AATCC Detergent, 100 mM bisulfite): 0 PPM; Hydrogen Peroxide Generation, PPM H2O2 ([1]; Control Buffer, 10 mM bisulfite): 1 PPM; Hydrogen Peroxide Generation, PPM H2O2 ([1]; Control Buffer, 50 mM bisulfite): 0 PPM; Hydrogen Peroxide Generation, PPM H2O2 ([1]; Control Buffer, 100 mM bisulfite): 0 PPM; hydrogen peroxide production ([1]; Example 3 (metabisulfite), buffer control mixture, 50 mM, various time periods tested): did not produce any hydrogen peroxide; hydrogen peroxide production ([1]; Example 3 (metabisulfite), buffer control mixture, 100 mM, time periods tested): did not produce any hydrogen peroxide; hydrogen peroxide production ([1]; buffer control mixture, 50 mM bisulfite, various time periods tested): did not produce any hydrogen peroxide; hydrogen peroxide production ([1]; buffer control mixture, 100 mM bisulfite, time periods tested): did not produce any hydrogen peroxide; premature hydrogen peroxide generation ([1]; 100 mM sodium hydrogen sulfite): no premature hydrogen peroxide generation was observed; H2O2 PPM ([3]; AATCC Detergent, T = 0+): 0 PPM
2 | O=S([O-])S(=O)(=O)[O-].[Na+].[Na+] [sodium metabisulfite] | reversible inhibitors | able to stop premature generation of H2O2 | 0 PPM | 0 PPM | 0 PPM | 0, PPM | 0 PPM | 0 PPM | 0 PPM | 0 PPM | 0 PPM | 0 PPM | 1 (metabisulfite) PPM | 0 PPM | 0 PPM | 0 PPM | 0 (metabisulfite) PPM | H2O2 PPM ([1]; AATCC Detergent): 0 PPM; H2O2 PPM ([1]; Control Buffer): 0 PPM; H2O2 generated ([1]; buffer control mixture, 10 mM metabisulfite): 1 PPM; H2O2 generated ([1]; detergent mixture, 10 mM metabisulfite): > 10 PPM; H2O2 generated ([1]; detergent mixture, 50 mM metabisulfite): > 10 PPM; premature hydrogen peroxide generation ([1]; 100 mM inhibitor): no premature hydrogen peroxide generation was observed
